Legend:
EP4 = EP4 (Homo sapiens (Human), UniProt P35408); assay: hEP4 cAMP assay (BT549 breast cancer cells, HTRF cAMP); format: cell-based; details: antagonistic activity; mean values where measured multiple times
Protocol: Plate is pre-incubated 45 minutes at room temperature. Subsequently, 2.5 microliters of PGE2 (final conc. 6 nM) are transferred into the assay plate. Plate is incubated 30 minutes at room temperature.

EP2 = EP2 (Homo sapiens (Human), UniProt P43116);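 further: antagonism of PGE2-stimulated cAMP accumulation in SF295 human glioblastoma cells with endogenous EP2, cAMP read by HTRF, expressed relative to DMSO control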
Sequence of EP2 (P43116 whole entry): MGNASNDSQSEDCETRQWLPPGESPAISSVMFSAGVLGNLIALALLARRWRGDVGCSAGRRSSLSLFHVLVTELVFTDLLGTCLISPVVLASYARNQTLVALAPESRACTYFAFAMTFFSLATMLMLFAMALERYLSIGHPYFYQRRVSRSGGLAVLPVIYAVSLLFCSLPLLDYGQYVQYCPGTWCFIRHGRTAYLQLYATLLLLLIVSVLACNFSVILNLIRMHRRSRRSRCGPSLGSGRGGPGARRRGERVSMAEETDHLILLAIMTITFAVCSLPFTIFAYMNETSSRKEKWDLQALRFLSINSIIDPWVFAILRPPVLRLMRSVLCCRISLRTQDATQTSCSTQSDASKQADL
Text: Human tumor cell lines expressing endogenously either EP4 or EP2 are used and cAMP accumulation in cells upon PGE2 stimulation is monitored. SF295 glioblastoma cells express high endogenous EP2 and no EP4, whereas BT549 breast cancer cells, express high endogenous EP4 levels and very low EP2 levels.
As a detection method for cAMP the HTRF (homogeneous time resolved fluorescence) Cisbio kit (HTRF cAMP dynamic 2 kit 20′000 tests Cisbio Cat. #62AM4PEC) was used, which is based on a competitive immunoassay using a Cryptate-labeled anti-cAMP antibody and d2-labeled cAMP. Native cAMP produced by cells or unlabeled cAMP (for the standard curve) compete with exogenously added d2-labeled cAMP (acceptor) for binding to monoclonal anti-cAMP-Eu3+Cryptate (donor). A FRET signal (Fluorescence Resonance Energy Transfer) is obtained only if the labeled anti-cAMP antibody binds the d2 labelled cAMP, thus the specific signal (i.e. energy transfer) is inversely proportional to the concentration of cAMP in the standard or sample.
The SF295 cells (NCI/No. 0503170) are detached from culture dishes with a cell dissociation buffer (Invitrogen, 13151-014), and collected in growing medium (GM: RPM11640 (Invitrogen 21875)/10% FCS, 1% Penicilin/streptomycin). Cells are counted washed and resuspended in assay buffer (AB; HBSS, 20 mM HEPES, 0.2% BSA; 2 mM IBMX). 4,000 cells in 5 μl of AB are seeded per well of a small volume 384 well plate (black with flat bottom, Greiner 784076).
PGE2 (Cayman 14010, stock solution: 75 μM in DMSO) is used as agonist at 75 nM final concentration, corresponding to EC80.
Two point five microliters of diluted compounds are transferred into the assay plate. Plate is pre-incubated 45 minutes at room temperature. Subsequently, 2.5 microliters of PGE2 (final conc. 75 nM) are transferred into the assay plate. Plate is incubated 30 minutes at room temperature. Five μl of each donor (anti-cAMP cryptate) and acceptor (cAMP-d2) are added and the plate is incubated another hour at room temperature in the dark and then read using a BMG LABTECH PHERAstar reader (Excitation: 337 nm, Emission: 620 and 665 nm).
The obtained Delta F (fluorescence) values (665 nm/620 nM) are converted into % cAMP values using the measurements of the cAMP calibrator provided in the kit. For each compound concentration the percentage of cAMP compared to DMSO control value as average±STDEV (each concentration is measured in duplicate) is calculated.
IC50 values and curves are generated with XLfit software (IDBS) using Dose-Response One Site model 203. When compounds were measured multiple times, mean values are given.

Sequence of EP4 (P35408 whole entry): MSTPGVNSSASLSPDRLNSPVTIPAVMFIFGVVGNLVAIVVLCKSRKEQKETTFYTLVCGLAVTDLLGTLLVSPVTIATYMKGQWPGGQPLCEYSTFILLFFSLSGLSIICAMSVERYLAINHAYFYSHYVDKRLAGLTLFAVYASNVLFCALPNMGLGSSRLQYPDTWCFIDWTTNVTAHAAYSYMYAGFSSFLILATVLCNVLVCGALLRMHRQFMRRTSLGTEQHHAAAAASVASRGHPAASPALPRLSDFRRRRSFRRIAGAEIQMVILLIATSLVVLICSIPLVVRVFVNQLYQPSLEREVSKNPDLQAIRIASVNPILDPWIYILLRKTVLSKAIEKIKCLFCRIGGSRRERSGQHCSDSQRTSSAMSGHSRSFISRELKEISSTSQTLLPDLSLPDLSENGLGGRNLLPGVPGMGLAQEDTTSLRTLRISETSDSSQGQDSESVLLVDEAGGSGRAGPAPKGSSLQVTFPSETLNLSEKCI

IC50 (EP4)	IC50 (EP2)	Compound
153 nM	114 nM	COc1cc(F)c(F)c2c1cc(C)n2CCNc1cc(-c2ccc(-c3cncn3C)cc2)ncn1 [compound 641]
706 nM	294 nM	Cc1ccc(F)c2c1cc(C)n2CCNc1cc(-c2ccc(-c3cnc(CCC(=O)O)o3)cc2)ncn1 [compound 643]
54 nM	6 nM	COc1cc(F)c(F)c2c1cc(C)n2CCNc1cc(-c2ccc(C(=O)O)c(NCC(F)(F)F)c2)ncn1 [compound 644, 4-{6-[2-(6,7-Difluoro-4-methoxy-2-methyl-indol-1-yl)-ethylamino]-pyrimidin-4-yl}-2-(2,2,2-trifluoro-ethylamino)-benzoic acid]
16 nM	9 nM	CNc1nnc(-c2ccc(-c3cc(NCCn4c(C)cc5c(OC)cc(F)cc54)ncn3)cc2)s1 [compound 645]
312 nM	48 nM	COc1ccc(F)c2c1cc(C)n2CCNc1cc(-c2ccc(-c3cnc(CCC(=O)O)o3)cc2)ncn1 [compound 646]
302 nM	146 nM	Cc1nc(CCC(=O)O)oc1-c1ccc(-c2cc(NCCn3c(C)cc4c(C)cc(F)cc43)ncn2)cc1 [compound 647]
893 nM	195 nM	Cc1nc(CCC(=O)O)oc1-c1ccc(-c2cc(NCCn3c(C)cc4c(C)ccc(F)c43)ncn2)cc1 [compound 648]
768 nM	13 nM	COc1cccc2c1cc(C)n2CCNc1cc(-c2ccc(C(=O)O)c(Oc3ccc(F)cc3)c2)ncn1 [compound 649]
443 nM	93 nM	Cc1ccc(F)c2c1cc(C)n2CCNc1cc(-c2ccc(C(=O)O)c(Oc3ccc(F)cc3)c2)ncn1 [compound 650]
257 nM	166 nM	COc1cc(F)cc2c1cc(C)n2CCNc1cc(-c2ccc(-c3oc(CCC(=O)O)nc3C)cc2)ncn1 [compound 651]
136 nM	60 nM	COc1ccc(F)c2c1cc(C)n2CCNc1cc(-c2ccc(-c3oc(CCC(=O)O)nc3C)cc2)ncn1 [compound 652]
527 nM	428 nM	Cc1nc(CCC(=O)O)oc1-c1ccc(-c2cc(NCCn3c(C)cc4c(C)cc(F)c(F)c43)ncn2)cc1 [compound 653]
313 nM	26 nM	COc1ccc(F)c2c1cc(C)n2CCNc1cc(-c2ccc(C(=O)O)c(Oc3ccc(F)cc3)c2)ncn1 [compound 654]
191 nM	152 nM	COc1cc(F)c(F)c2c1cc(C)n2CCNc1cc(-c2ccc(-c3oc(CCC(=O)O)nc3C)cc2)ncn1 [compound 655]
89 nM	52 nM	CCOc1cc(-c2cc(NCCn3c(C)cc4c(OC)cc(F)c(F)c43)ncn2)cc(F)c1-c1nnn[nH]1 [compound 656]
189 nM	71 nM	CCOc1cc(-c2cc(NCCn3c(C)cc4c(C)cc(F)c(F)c43)ncn2)cc(F)c1-c1nnn[nH]1 [compound 657]
287 nM	24 nM	CCOc1cc(-c2cc(NCCn3c(C)cc4c(OC)cc(F)cc43)ncn2)cc(F)c1-c1nnn[nH]1 [compound 658]
54 nM	6 nM	CCNc1cc(-c2cc(NCCn3c(C)cc4c5c(cc(Cl)c43)OCO5)ncn2)ccc1-c1nnn[nH]1 [compound 659, [2-(5-Chloro-7-methyl-[1,3]dioxolo[4,5-e]indol-6-yl)-ethyl]-{6-[3-ethylamino-4-(1H-tetrazol-5-yl)-phenyl]-pyrimidin-4-yl}-amine]
303 nM	16 nM	CCOc1cc(-c2cc(NCCn3c(C)cc4c(C)cc(F)cc43)ncn2)cc(F)c1-c1nnn[nH]1 [compound 660]
39 nM	4 nM	CCOc1cc(-c2cc(NCCn3c(C)cc4c(OC)ccc(F)c43)ncn2)ccc1-c1nnn[nH]1 [compound 661]
136 nM	8 nM	CCOc1cc(-c2cc(NCCn3c(C)cc4c(OC)ccc(Cl)c43)ncn2)ccc1-c1nnn[nH]1 [compound 662]
95 nM	4 nM	CCOc1cc(-c2cc(NCCn3c(C)cc4c(OC)cccc43)ncn2)ccc1-c1nnn[nH]1 [compound 664]
13 nM	2 nM	CCNc1cc(-c2cc(NCCn3c(C)cc4c(OC)ccc(F)c43)ncn2)ccc1-c1nnn[nH]1 [compound 665, {6-[3-Ethylamino-4-(1H-tetrazol-5-yl)-phenyl]-pyrimidin-4-yl}-[2-(7-fluoro-4-methoxy-2-methyl-indol-1-yl)-ethyl]-amine]

IC50 (EP4)	IC50 (EP2)	Compound
40 nM	7 nM	CCNc1cc(-c2cc(NCCn3c(C)cc4c(OC)ccc(Cl)c43)ncn2)ccc1-c1nnn[nH]1 [compound 666, [2-(7-Chloro-4-methoxy-2-methyl-indol-1-yl)-ethyl]-{6-[3-ethylamino-4-(1H-tetrazol-5-yl)-phenyl]-pyrimidin-4-yl}-amine]
17 nM	2 nM	CCNc1cc(-c2cc(NCCn3c(C)cc4c(OC)cccc43)ncn2)ccc1-c1nnn[nH]1 [compound 667, {6-[3-Ethylamino-4-(1H-tetrazol-5-yl)-phenyl]-pyrimidin-4-yl}-[2-(4-methoxy-2-methyl-indol-1-yl)-ethyl]-amine]
22 nM	8 nM	CCNc1cc(-c2cc(NCCn3c(C)cc4c(C)ccc(F)c43)ncn2)ccc1-c1nnn[nH]1 [compound 668, {6-[3-Ethylamino-4-(1H-tetrazol-5-yl)-phenyl]-pyrimidin-4-yl}-[2-(7-fluoro-2,4-dimethyl-indol-1-yl)-ethyl]-amine]
644 nM	2 nM	CCOc1cc(-c2cc(NCCn3c(C)cc4ccccc43)ncn2)ccc1-c1nnn[nH]1 [compound 669]
406 nM	8 nM	COc1cc(-c2cc(NCCn3c(C)cc4c(OC)cccc43)ncn2)ccc1-c1nnn[nH]1 [compound 670, [2-(4-Methoxy-2-methyl-indol-1-yl)-ethyl]-{6-[3-methoxy-4-(1H-tetrazol-5-yl)-phenyl]-pyrimidin-4-yl}-amine]
136 nM	2 nM	CCNc1cc(-c2cc(NCCn3c(C)cc4ccccc43)ncn2)ccc1-c1nnn[nH]1 [compound 671, {6-[3-Ethylamino-4-(1H-tetrazol-5-yl)-phenyl]-pyrimidin-4-yl}-[2-(2-methyl-indol-1-yl)-ethyl]-amine]
3 nM	1 nM	CCCCOc1cc(-c2cc(NCCn3c(C)cc4c(OC)cc(F)cc43)ncn2)sc1C(=O)O [compound 672]
3 nM	2 nM	CCCCOc1cc(-c2cc(NCCn3c(C)cc4c(OC)ccc(F)c43)ncn2)sc1C(=O)O [compound 673]
6 nM	2 nM	CCCOc1cc(-c2cc(NCCn3c(C)cc4c(OC)cc(F)cc43)ncn2)sc1C(=O)O [compound 674]
7 nM	4 nM	COc1ccc(F)c2c1cc(C)n2CCNc1cc(-c2cc(OC(C)C)c(C(=O)O)s2)ncn1 [compound 675]
9 nM	3 nM	COc1cc(F)cc2c1cc(C)n2CCNc1cc(-c2cc(OC(C)C)c(C(=O)O)s2)ncn1 [compound 676]
12 nM	2 nM	CCCOc1cc(-c2cc(NCCn3c(C)cc4c(OC)ccc(F)c43)ncn2)sc1C(=O)O [compound 677]
40 nM	33 nM	COc1cc(F)c(F)c2c1cc(C)n2CCNc1cc(-c2ccc(-c3noc(=O)[nH]3)cc2)ncn1 [compound 678, 3-(4-{6-[2-(6,7-Difluoro-4-methoxy-2-methyl-indol-1-yl)-ethylamino]-pyrimidin-4-yl}-phenyl)-4H-[1,2,4]oxadiazol-5-one]
95 nM	20 nM	COc1cc(Cl)cc2c1cc(C)n2CCNc1cc(-c2ccc(-c3noc(=O)[nH]3)cc2)ncn1 [compound 679, 3-(4-{6-[2-(6-Chloro-4-methoxy-2-methyl-indol-1-yl)-ethylamino]-pyrimidin-4-yl}-phenyl)-4H-[1,2,4]oxadiazol-5-one]
113 nM	56 nM	Cc1cc(F)c(F)c2c1cc(C)n2CCNc1cc(-c2ccc(-c3noc(=O)[nH]3)cc2)ncn1 [compound 680]
247 nM	14 nM	Cc1cc2c(Cl)cc(Cl)cc2n1CCNc1cc(-c2ccc(-c3noc(=O)[nH]3)cc2)ncn1 [compound 681, 3-(4-{6-[2-(4,6-Dichloro-2-methyl-indol-1-yl)-ethylamino]-pyrimidin-4-yl}-phenyl)-4H-[1,2,4]oxadiazol-5-one]
251 nM	12 nM	Cc1cc2c(F)c(F)cc(F)c2n1CCNc1cc(-c2ccc(-c3noc(=O)[nH]3)cc2)ncn1 [compound 682, 3-(4-{6-[2-(4,5,7-Trifluoro-2-methyl-indol-1-yl)-ethylamino]-pyrimidin-4-yl}-phenyl)-4H-[1,2,4]oxadiazol-5-one]
162 nM	6 nM	COc1cc(-c2cc(NCCn3c(C)cc4c(OC)ccc(F)c43)ncn2)ccc1-c1nnn[nH]1 [compound 683, [2-(7-Fluoro-4-methoxy-2-methyl-indol-1-yl)-ethyl]-{6-[3-methoxy-4-(1H-tetrazol-5-yl)-phenyl]-pyrimidin-4-yl}-amine]
471 nM	36 nM	COc1cc(-c2cc(NCCn3c(C)cc4c(OC)ccc(Cl)c43)ncn2)ccc1-c1nnn[nH]1 [compound 684, [2-(7-Chloro-4-methoxy-2-methyl-indol-1-yl)-ethyl]-{6-[3-methoxy-4-(1H-tetrazol-5-yl)-phenyl]-pyrimidin-4-yl}-amine]
109 nM	6 nM	Cc1cc(F)cc2c1cc(C)n2CCNc1cc(-c2ccc(-c3ncno3)cc2)ncn1 [compound 685, [2-(6-Fluoro-2,4-dimethyl-indol-1-yl)-ethyl]-[6-(4-[1,2,4]oxadiazol-5-yl-phenyl)-pyrimidin-4-yl]-amine]
842 nM	239 nM	Cc1nc2cc(-c3cc(NCCn4c(C)cc5c(C)ccc(F)c54)ncn3)ccc2o1 [compound 686]
778 nM	91 nM	COc1cc(F)cc2c1cc(C)n2CCNc1cc(-c2ccc3oc(C)nc3c2)ncn1 [compound 687]
